According to ChEMBL document CHEMBL4627299, “Computational discovery and biological evaluation of novel inhibitors targeting histone-lysine N-methyltransferase SET7” (Bioorg Med Chem, 2020):
pIC50: −log10 of the molar value. Calls of active or inactive are those of the source. The calls are words filed in the database; no cut-off is given here.

What was measured:
[1] = target: T1, Histone-lysine N-methyltransferase SMYD3 (Homo sapiens, UniProt Q9H7B4); assay: Inhibition of SMYD3 (unknown origin) preincubated for 15 mins followed by addition of [3H]-SAM as substrate and peptide solution after 240 mins cold SAM was added measured after 1 hr by radioisotope assay
T1 sequence (Q9H7B4 whole entry): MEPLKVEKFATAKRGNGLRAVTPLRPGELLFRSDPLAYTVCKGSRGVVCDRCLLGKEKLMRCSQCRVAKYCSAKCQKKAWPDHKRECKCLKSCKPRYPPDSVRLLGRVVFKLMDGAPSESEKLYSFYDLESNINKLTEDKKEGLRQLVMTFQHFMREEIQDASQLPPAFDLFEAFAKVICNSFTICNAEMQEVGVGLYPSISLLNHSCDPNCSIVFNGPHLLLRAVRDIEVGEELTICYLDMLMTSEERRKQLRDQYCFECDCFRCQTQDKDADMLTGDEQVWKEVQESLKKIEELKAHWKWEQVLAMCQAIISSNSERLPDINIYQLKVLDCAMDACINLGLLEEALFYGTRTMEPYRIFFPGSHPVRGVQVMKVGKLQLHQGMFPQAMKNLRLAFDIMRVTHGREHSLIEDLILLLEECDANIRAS

MDA-MB-231 = assay: Antiproliferation activity against human MDA-MB-231 cells assessed as reduction in cell viability measured by Cell-titer-Glo assay; assay type: functional, cell-based
MV4-11 = assay: Antiproliferation activity against human MV4-11 cells assessed as reduction in cell viability measured by Cell-titer-Glo assay; assay type: functional, cell-based
Homo sapiens = species: Homo sapiens; assay: Antiproliferation activity against human UMCHOR1 cells assessed as reduction in cell viability measured by Cell-titer-Glo assay; assay type: functional, cell-based
[2] = target: T2, Histone-lysine N-methyltransferase SETD7 (Homo sapiens, UniProt Q8WTS6); assay: Inhibition of human SET7 overexpressed in Escherichia coli BL21 (DE3) cells preincubated for 15 mins followed by addition of SAM as substrate and biotinylated Histone H3 (1-50) peptide measured after 30 mins by AlphaLISA assay relative to control
T2 sequence (Q8WTS6 whole entry): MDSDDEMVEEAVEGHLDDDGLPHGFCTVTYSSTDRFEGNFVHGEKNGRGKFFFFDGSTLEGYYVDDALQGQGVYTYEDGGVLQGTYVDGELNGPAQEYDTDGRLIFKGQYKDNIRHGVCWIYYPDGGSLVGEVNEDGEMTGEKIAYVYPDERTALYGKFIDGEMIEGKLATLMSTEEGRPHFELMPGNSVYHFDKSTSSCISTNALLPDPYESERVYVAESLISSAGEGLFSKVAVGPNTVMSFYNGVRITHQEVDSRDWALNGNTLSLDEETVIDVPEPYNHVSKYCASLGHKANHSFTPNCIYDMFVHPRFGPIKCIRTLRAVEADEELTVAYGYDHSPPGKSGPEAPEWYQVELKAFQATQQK

[3] = target: T3, Histone-lysine N-methyltransferase NSD2 (Homo sapiens, UniProt O96028); assay: Inhibition of NSD2 (unknown origin) preincubated for 15 mins followed by addition of [3H]-SAM as substrate and peptide solution after 240 mins cold SAM was added measured by radioisotope assay
T3 sequence (O96028 whole entry): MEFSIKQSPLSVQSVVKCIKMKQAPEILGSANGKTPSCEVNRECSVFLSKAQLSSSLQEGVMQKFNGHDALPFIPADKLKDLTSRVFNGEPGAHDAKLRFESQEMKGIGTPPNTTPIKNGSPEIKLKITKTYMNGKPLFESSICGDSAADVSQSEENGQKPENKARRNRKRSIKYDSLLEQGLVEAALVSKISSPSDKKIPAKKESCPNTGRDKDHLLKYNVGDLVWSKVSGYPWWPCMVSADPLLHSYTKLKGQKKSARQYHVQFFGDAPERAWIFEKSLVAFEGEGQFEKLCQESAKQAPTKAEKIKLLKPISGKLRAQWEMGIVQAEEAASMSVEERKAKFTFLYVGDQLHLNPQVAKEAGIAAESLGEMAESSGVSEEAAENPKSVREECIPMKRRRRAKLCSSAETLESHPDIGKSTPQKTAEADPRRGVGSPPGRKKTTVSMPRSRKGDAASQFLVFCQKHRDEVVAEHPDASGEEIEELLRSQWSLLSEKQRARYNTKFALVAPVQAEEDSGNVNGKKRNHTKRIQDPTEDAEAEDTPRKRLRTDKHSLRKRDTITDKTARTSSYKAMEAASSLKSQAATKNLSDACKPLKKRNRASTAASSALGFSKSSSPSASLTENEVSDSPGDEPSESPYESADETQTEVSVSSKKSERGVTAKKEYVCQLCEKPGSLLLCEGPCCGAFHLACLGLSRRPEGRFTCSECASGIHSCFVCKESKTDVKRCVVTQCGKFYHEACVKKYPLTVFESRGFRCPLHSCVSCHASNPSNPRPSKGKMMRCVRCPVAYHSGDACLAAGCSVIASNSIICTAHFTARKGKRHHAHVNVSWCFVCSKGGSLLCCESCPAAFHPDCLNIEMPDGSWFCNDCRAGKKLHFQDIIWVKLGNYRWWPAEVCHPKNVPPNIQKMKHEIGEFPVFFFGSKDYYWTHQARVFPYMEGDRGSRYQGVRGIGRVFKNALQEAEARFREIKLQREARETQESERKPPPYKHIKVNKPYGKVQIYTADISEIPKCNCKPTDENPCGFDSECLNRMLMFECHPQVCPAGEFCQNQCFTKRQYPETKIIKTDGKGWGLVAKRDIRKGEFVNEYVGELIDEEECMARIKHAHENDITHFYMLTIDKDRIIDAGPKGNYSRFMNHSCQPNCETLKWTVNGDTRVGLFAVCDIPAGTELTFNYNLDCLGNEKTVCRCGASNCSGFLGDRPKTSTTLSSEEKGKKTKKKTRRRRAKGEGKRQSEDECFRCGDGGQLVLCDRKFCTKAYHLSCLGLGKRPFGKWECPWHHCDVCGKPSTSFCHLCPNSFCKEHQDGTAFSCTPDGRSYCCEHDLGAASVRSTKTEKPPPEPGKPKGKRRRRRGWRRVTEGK

HeLa = assay: Antiproliferation activity against human HeLa cells assessed as reduction in cell viability measured by Cell-titer-Glo assay; assay type: functional, cell-based
MCF7 = assay: Antiproliferation activity against human MCF7 cells assessed as reduction in cell viability measured by Cell-titer-Glo assay; assay type: functional, cell-based
A549 = assay: Antiproliferation activity against human A549 cells assessed as reduction in cell viability measured by Cell-titer-Glo assay; assay type: functional, cell-based
[4] = target: Histone-lysine N-methyltransferase 2A (Homo sapiens, UniProt Q03164); assay: Inhibition of MLL1 (unknown origin) preincubated for 15 mins followed by addition of substrate measured after 1 hr by AlphaLISA assay
Chain of Histone-lysine N-methyltransferase 2A (Q03164 1-2718 limits assumed): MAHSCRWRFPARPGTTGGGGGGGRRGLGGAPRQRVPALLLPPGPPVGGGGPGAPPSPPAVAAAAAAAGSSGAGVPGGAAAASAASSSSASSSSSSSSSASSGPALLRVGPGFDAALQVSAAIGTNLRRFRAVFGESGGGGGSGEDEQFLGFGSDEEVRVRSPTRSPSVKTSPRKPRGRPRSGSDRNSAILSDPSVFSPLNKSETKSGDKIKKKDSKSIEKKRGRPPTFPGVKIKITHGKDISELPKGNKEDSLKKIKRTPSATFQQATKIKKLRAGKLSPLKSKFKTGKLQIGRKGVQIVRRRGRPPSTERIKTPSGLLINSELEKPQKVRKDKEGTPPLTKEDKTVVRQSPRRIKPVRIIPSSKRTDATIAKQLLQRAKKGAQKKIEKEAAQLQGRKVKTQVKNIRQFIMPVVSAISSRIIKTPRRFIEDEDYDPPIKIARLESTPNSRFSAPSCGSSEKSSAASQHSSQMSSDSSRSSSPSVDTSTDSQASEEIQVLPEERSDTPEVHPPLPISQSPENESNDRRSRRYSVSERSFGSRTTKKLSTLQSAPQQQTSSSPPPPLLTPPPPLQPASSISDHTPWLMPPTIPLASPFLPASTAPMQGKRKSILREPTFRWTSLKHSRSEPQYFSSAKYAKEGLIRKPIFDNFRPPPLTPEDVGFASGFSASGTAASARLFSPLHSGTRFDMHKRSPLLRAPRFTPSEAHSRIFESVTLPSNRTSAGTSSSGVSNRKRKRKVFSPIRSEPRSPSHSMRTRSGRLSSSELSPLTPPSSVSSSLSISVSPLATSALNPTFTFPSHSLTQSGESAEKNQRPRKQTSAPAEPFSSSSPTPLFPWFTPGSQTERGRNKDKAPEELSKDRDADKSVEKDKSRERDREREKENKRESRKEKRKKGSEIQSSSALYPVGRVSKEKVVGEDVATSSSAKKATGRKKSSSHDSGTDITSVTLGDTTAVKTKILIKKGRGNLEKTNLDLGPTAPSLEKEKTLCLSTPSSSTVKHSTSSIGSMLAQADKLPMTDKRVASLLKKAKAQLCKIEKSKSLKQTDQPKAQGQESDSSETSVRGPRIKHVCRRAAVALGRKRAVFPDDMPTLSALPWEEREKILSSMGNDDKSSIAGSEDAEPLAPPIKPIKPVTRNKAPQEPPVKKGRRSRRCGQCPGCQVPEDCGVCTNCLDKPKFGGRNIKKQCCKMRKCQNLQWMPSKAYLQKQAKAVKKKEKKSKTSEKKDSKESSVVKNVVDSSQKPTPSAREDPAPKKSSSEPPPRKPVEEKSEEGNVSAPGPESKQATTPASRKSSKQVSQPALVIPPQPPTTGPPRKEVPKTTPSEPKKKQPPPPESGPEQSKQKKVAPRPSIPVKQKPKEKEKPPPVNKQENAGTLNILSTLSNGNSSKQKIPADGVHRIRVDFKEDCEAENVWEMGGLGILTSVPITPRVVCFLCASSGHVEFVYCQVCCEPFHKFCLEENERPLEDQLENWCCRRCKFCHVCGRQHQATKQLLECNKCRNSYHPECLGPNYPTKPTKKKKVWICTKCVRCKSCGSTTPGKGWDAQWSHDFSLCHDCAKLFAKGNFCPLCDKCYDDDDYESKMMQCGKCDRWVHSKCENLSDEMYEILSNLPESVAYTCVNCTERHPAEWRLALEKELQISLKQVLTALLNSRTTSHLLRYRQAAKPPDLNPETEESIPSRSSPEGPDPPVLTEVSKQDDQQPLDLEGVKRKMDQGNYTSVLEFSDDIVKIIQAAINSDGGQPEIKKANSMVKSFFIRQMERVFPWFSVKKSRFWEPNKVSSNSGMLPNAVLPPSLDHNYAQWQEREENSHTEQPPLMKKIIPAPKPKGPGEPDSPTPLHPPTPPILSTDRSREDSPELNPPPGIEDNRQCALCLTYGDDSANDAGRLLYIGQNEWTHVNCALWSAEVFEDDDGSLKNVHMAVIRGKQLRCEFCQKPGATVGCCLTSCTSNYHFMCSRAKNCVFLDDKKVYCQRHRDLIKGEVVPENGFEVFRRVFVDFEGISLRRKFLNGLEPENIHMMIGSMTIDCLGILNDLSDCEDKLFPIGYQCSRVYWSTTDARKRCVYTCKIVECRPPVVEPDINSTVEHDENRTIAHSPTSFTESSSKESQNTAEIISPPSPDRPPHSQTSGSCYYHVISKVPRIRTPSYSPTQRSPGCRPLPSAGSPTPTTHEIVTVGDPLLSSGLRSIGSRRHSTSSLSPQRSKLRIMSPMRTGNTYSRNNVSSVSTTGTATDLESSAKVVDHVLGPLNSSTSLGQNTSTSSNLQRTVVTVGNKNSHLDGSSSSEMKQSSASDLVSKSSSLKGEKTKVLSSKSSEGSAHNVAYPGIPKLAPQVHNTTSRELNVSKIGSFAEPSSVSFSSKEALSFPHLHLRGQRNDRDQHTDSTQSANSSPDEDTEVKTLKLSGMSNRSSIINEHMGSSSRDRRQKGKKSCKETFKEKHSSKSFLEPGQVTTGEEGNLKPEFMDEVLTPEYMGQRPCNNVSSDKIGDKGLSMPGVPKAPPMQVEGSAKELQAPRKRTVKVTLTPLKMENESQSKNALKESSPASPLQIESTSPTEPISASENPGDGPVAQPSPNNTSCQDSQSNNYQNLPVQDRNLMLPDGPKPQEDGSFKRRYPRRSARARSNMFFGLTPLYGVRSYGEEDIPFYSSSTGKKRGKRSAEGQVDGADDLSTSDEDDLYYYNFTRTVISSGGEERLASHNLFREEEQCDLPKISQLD
Chain of Histone-lysine N-methyltransferase 2A (Q03164 2719-3969 limits assumed): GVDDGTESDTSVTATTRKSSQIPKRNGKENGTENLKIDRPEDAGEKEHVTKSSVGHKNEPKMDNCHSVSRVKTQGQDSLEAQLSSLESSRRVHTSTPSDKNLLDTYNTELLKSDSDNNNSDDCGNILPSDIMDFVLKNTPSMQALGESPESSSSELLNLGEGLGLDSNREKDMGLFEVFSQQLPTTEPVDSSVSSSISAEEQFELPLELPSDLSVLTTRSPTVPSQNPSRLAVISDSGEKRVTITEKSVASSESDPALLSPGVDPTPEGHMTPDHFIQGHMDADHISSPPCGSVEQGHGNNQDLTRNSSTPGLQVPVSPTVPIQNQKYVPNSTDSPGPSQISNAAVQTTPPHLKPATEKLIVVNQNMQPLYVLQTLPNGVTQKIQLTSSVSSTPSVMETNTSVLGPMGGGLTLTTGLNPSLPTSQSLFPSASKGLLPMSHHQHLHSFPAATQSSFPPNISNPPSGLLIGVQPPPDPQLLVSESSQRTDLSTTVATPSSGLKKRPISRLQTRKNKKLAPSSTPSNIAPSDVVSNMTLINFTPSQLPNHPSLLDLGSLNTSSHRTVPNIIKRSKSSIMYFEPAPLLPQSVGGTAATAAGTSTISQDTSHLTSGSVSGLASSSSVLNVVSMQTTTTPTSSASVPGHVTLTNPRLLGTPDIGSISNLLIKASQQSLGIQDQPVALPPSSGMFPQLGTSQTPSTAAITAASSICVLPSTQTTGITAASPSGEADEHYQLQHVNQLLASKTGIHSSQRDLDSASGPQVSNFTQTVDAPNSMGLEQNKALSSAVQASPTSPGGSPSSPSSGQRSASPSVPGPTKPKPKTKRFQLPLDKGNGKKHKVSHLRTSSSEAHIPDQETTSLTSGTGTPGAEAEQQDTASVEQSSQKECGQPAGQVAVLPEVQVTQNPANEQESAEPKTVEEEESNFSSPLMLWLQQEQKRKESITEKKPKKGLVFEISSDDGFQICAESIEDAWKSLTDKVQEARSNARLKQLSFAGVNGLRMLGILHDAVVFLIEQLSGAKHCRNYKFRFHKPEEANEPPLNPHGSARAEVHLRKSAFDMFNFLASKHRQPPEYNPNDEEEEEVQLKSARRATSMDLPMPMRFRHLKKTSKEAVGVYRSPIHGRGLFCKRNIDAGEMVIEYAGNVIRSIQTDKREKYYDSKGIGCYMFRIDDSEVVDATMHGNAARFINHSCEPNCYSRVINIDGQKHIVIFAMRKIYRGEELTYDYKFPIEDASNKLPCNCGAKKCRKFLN

[5] = target: T4, Histone-lysine N-methyltransferase EZH1 (Homo sapiens, UniProt Q92800); assay: Inhibition of Ezh1 (unknown origin) preincubated for 15 mins followed by addition of substrate measured after 1 hr by AlphaLISA assay
T4 sequence (Q92800 whole entry): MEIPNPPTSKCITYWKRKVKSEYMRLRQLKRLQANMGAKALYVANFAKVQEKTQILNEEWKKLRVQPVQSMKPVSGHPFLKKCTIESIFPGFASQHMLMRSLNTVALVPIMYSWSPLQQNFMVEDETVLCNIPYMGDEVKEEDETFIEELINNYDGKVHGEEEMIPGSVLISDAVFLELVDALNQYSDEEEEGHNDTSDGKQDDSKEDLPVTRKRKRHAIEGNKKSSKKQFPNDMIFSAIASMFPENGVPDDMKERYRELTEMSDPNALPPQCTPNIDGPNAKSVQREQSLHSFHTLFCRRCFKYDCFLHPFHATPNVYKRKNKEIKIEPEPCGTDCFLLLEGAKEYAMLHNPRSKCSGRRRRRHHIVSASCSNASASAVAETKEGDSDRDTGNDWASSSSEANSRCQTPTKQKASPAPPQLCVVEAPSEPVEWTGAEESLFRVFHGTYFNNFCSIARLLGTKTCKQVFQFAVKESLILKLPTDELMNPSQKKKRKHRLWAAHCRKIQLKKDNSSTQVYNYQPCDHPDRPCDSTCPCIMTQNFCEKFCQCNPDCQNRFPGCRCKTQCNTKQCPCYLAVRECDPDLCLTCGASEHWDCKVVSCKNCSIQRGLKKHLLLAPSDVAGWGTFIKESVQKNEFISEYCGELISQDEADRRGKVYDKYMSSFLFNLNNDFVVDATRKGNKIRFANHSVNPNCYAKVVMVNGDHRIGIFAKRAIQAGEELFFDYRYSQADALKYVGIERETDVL

[6] = target: T5, Histone-lysine N-methyltransferase SETD7 (Homo sapiens) (UniProt Q8WTS6); assay: Inhibition of human SET7 overexpressed in Escherichia coli BL21 (DE3) cells at 25 uM preincubated for 15 mins followed by addition of SAM as substrate and biotinylated Histone H3 (1-50) peptide measured after 30 mins by AlphaLISA assay relative to control
T5 sequence (whole entry): T2 sequence (Q8WTS6 whole entry)

[7] = target: T5, Histone-lysine N-methyltransferase SETD7 (Homo sapiens); assay: Inhibition of human SET7 overexpressed in Escherichia coli BL21 (DE3) cells at 50 uM preincubated for 15 mins followed by addition of SAM as substrate and biotinylated Histone H3 (1-50) peptide measured after 30 mins by AlphaLISA assay relative to control
[8] = target: T5, Histone-lysine N-methyltransferase SETD7 (Homo sapiens); assay: Inhibition of human SET7 overexpressed in Escherichia coli BL21 (DE3) cells at 12.5 uM preincubated for 15 mins followed by addition of SAM as substrate and biotinylated Histone H3 (1-50) peptide measured after 30 mins by AlphaLISA assay relative to control

Row | pIC50 [2] | inhibition [6] | inhibition [7] | inhibition [8] | SMILES | further results
1 | 5.71 | – | – | – | O=c1cc(-c2ccc(O)cc2)oc2cc(O)c(O)c(O)c12 [SCUTELLAREIN] | pIC50 [1]: 4.74; Activity (MDA-MB-231): inactive; pIC50 (MV4-11): 4.57; Activity (Homo sapiens): inactive; pIC50 [3]: 5.58; Activity (HeLa): inactive; Activity (MCF7): inactive; Activity (A549): inactive; pIC50 [4]: 5.53; pIC50 [5]: 5.06
2 | – | 29% | 23% | 18% | Cc1cnc(NC(=O)C2=C(O)c3ccccc3S(=O)(=O)N2C)s1 | –
3 | < 3.70 | – | – | – | O=c1c(O)c(-c2ccccc2)oc2cc(O)cc(O)c12 [GALANGIN] | –
4 | – | 19% | 23% | 27% | O=C(Nc1c(Cl)cncc1Cl)c1ccc(OC(F)F)c(OCC2CC2)c1 | –
5 | – | 28% | 39% | 17% | C=CC(C)(C)c1cc(/C=C/C(=O)c2ccc(O)cc2)c(OC)cc1O | –
6 | – | 4% | – | 3% | CC(C)=CCC1=C(O)C(=O)c2ccccc2C1=O | –
7 | < 3.70 | – | – | – | COc1ccc(-c2oc3cc(O)cc(O)c3c(=O)c2O)cc1 [KAEMPFERIDE] | –
8 | – | 18% | 7% | 8% | O=C(N/N=C/c1ccc([N+](=O)[O-])o1)c1ccc(O)cc1 | –
9 | – | 26% | 26% | 17% | Cc1cc([N+](=O)[O-])ccc1NS(=O)(=O)c1cc(Cl)ccc1Cl | –
10 | – | 10% | 4% | 19% | COc1c(O)cc(O)c2c(=O)cc(-c3ccccc3)oc12 | –
11 | – | 6% | 14% | 5% | O=c1c(-c2ccc(O)cc2)coc2cc(O)ccc12 | –

Further lines, the molecule ahead of its results:

Row | SMILES | pIC50 [2] | inhibition [6] | inhibition [7] | inhibition [8] | further results
12 | CCN1CCCC1CNC(=O)c1cc(S(=O)(=O)CC)c(N)cc1OC (centres undefined) | – | 14% | 3% | 14% | –
13 | O=C1C[C@@H](c2ccc(O)c(O)c2)Oc2cc(O)cc(O)c21 [ERIODICTYOL] | < 3.70 | – | – | – | –
14 | N[C@@H](CC(=O)N1CCn2c(nnc2C(F)(F)F)C1)Cc1cc(F)c(F)cc1F | – | 6% | – | – | –
15 | O=c1cc(-c2ccc(O)c(O)c2)oc2cc(O)cc(O)c12 [LUTEOLIN] | 5.22 | – | – | – | –
16 | Cc1oncc1C(=O)Nc1ccc(C(F)(F)F)cc1 | – | 4% | – | – | –
17 | CC(C)C[C@H](NC(=O)[C@H](Cc1ccccc1)NC(=O)c1cnccn1)B(O)O | – | 19% | 24% | 18% | –
18 | CC(C)=CC[C@@H](O)C1=CC(=O)c2c(O)ccc(O)c2C1=O [SHIKONIN] | 4.67 | 72% | 90% | 50% | –
19 | CCn1cc(C(=O)O)c(=O)c2cc(F)c(N3CCNC(C)C3)c(F)c21 (centres undefined) | – | 23% | 14% | 19% | –
20 | COc1cc(O)c(CC=C(C)C)c(O)c1C(=O)/C=C/c1ccc(O)cc1 | – | 11% | 18% | 9% | –
21 | O=c1c(O)c(-c2ccc(O)cc2O)oc2cc(O)cc(O)c12 [MORIN] | 5.22 | 62% | 87% | 40% | –
22 | COC(=O)[C@H](Cc1ccccc1)NC(=O)[C@@H](N)CC(=O)O | – | 32% | 10% | 17% | –
23 | O=c1c(O)c(-c2ccc(O)cc2)oc2cc(O)cc(O)c12 [KAEMPFEROL] | < 3.70 | – | – | – | –
